Among the data in patent EP4707277A1, “NOVEL HETEROCYCLIC AMINE DERIVATIVES AND PHARMACEUTICAL COMPOSITION COMPRISING SAME” (Daewoong Pharmaceutical Co., Ltd., priority 2023, dated 2024) are IC50 values, retold here.

For one experiment, the target named is T1, BTK (Homo sapiens, UniProt Q06187).
T1 construct: purchased Signalchem B10-10H
As to the kind of experiment: Inhibitory activity against BTK, ADP-Glo Kinase system (Promega). In kind it is biochemical. How it is done: (§1) Inhibitory activities against BTK and ITK were measured for the compounds prepared in the above Examples as follows.
(§2) The inhibitory activities against BTK and ITK were evaluated using 'ADP-Glo™ Kinase system' (Promega Corporation). In the case of this evaluation method, activation was measured by quantifying the amount of ADP produced during the kinase reaction, which was utilized to measure the inhibitory activities against BTK and ITK.
(§3) Specifically, the inhibitory activities against BTK and ITK were measured using BTK kinase (Signalchem, B10-10H), ITK kinase (Signalchem, I13-11G-10), and ADP-Glo kinase assay kit (Promega, V9102). Recombinant purified human BTK and ITK were diluted with 1 x kinase reaction buffer (40 mM Tris-Cl, pH 7.5, 20 mM MgCl2, 0.1 mg/mL BSA, 2 mM MnCl2 and 50 uM DTT) and added to a 96 well plate (ITK: final concentration of 4 ng per reaction/BTK: final concentration of 10 ng per reaction). The compounds prepared in the previous Examples were treated so as to be finally a 1% DMSO aqueous solution, and a substrate cocktail containing ATP (1mM or Km ATP (BTK: 10 uM /ITK: 25uM)) and 0.2 ug/ul of Poly (Glu4,Tyr1) peptide (BTK and ITK final concentration) in the total 25 uL reactants was added to a 96-well plate to initiate enzymatic reaction. After incubation (30°C) for 1 hour, equivalent volume (25 uL per reaction) of ADP Glo was added, and incubated (30°C) for 40 minutes at room temperature. Then, a kinase detection reagent (45 uL per reaction) was added, and incubated (30°C) for 30 minutes at room temperature. The kinase activity was measured by chemiluminescence according to the instructions of ADP Glo kinase assay kit, and the inhibitory activity of the compounds according to the present disclosure was calculated. For the analysis of the results of each compound, Microsoft Excel was used, and IC50 values were calculated by GraphPad Prism software.

A further experiment deals with T2, ITK (Homo sapiens, UniProt Q08881).
T2 construct: purchased Signalchem I13-11G-10
T2 sequence (Q08881 1-620): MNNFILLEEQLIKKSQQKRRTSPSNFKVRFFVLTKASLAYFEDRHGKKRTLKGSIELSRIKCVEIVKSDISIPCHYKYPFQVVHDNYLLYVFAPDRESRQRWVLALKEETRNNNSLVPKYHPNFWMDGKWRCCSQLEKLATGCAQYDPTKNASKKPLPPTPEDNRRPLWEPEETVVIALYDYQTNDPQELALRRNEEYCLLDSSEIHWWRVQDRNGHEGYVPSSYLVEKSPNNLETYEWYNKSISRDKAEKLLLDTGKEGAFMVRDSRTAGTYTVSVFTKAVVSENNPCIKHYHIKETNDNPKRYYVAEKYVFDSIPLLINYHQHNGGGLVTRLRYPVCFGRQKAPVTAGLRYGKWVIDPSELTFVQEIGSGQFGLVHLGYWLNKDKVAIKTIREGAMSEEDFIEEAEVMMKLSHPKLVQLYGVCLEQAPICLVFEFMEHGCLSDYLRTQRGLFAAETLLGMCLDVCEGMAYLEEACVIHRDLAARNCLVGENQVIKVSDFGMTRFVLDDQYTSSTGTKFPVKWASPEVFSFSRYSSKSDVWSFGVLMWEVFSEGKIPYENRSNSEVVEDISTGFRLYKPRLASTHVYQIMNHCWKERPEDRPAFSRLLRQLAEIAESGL
As to the kind of experiment: Inhibitory activity against ITK, ADP-Glo Kinase system (Promega). In kind it is biochemical. Here is the method:
as §1, §2, §3
A general note: ADP-Glo turns the ADP formed in a reaction into a luminescent signal.

Where [1] appears, read: 1mM ATP, read-out: BTK IC50(nM) 1mM ATP.
Setting [2] is: 1mM ATP, read-out: ITK IC50(nM) 1mM ATP.
Setting [3] is: Km ATP (BTK: 10 uM), read-out: BTK IC50(nM) Km ATP.
[4] abbreviates: Km ATP (ITK: 25uM), read-out: ITK IC50(nM) Km ATP.

Read-outs that look alike come from different tables or passages of the source.

T1 sequence (Q06187 whole entry): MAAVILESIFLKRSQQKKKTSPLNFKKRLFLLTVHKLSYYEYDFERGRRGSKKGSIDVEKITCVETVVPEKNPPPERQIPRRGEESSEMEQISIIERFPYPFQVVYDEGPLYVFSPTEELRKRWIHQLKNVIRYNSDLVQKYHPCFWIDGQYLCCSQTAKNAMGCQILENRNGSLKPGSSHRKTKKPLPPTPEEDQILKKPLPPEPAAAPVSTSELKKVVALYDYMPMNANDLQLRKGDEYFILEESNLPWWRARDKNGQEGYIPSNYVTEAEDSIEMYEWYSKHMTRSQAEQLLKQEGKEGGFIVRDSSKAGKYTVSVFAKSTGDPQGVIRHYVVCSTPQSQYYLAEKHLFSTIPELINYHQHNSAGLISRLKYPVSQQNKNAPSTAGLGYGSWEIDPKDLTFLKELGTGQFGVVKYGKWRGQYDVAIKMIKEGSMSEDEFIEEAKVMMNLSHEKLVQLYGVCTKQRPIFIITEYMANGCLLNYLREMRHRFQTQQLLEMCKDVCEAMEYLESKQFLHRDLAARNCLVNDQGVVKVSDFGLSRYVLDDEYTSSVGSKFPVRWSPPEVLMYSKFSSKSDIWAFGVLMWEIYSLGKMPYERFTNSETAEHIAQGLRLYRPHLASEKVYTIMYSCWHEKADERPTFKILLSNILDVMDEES

As to `C=CC(=O)N1C[C@H](F)[C@H](Oc2nc(Nc3cc(F)ccc3C)cc3c2ccn3C)C1` [Example 139, 1-((3S,4R)-3-fluoro-4-((6-((5-fluoro-2-methylphenyl)amino)-1-methyl-1H-pyrrolo[3,2-c]pyridin-4-yl)oxy)pyrrolidin-1-yl)prop-2-en-1-one], the 50% inhibitory concentration (IC50) at BTK (setting [1]) and at ITK (setting [2]) was more than 500 nM in each case.

`C=CC(=O)N1CC[C@H](Oc2nc(Nc3ncc(C)s3)cc3c2ccn3CC(F)F)C1` [Example 206, (S)-1-(3-((1-(2,2-difluoroethyl)-6-((5-methylthiazol-2-yl)amino)-1H-pyrrolo[3,2-c]pyridin-4-yl)oxy)pyrrolidin-1-yl)prop-2-en-1-one]: the concentration for half-maximal inhibition (IC50) on BTK (setting [1]) and on ITK (setting [2]) was not above 20 nM each time.

For `C=CC(=O)N1CC(Oc2nc(Nc3ncc(C)s3)cc3c2ccn3C2CCCC2)C1` [Example 142, 1-(3-((1-cyclopentyl-6-((5-methylthiazol-2-yl)amino)-1H-pyrrolo[3,2-c]pyridin-4-yl)oxy)azetidin-1-yl)prop-2-en-1-one], the 50% inhibitory concentration (IC50) on BTK (setting [1]) and at ITK (setting [2]) was not above 20 nM each time.

Take `C/C=C/C(=O)N1CC[C@H](Oc2nc(Nc3ncc(C)s3)cc3c2ccn3CC(C)C)C1` [Example 226, (S,E)-1-(3-((1-isobutyl-6-((5-methylthiazol-2-yl)amino)-1H-pyrrolo[3,2-c]pyridin-4-yl)oxy)pyrrolidin-1-yl)but-2-en-1-one]: the concentration for half-maximal inhibition (IC50) on BTK (setting [1]) and on ITK (setting [2]) was more than 500 nM in each case.

With `C=CC(=O)N1CC=C(c2nc(Nc3ncc(C)s3)cc3c2ccn3CC2CCOC2)CC1` (centres unmarked) [Example 8, 1-(4-(6-((5-methylthiazol-2-yl)amino)-1-((tetrahydrofuran-3-yl)methyl)-1H-pyrrolo[3,2-c]pyridin-4-yl)-3,6-dihydropyridin-1(2H)-yl)prop-2-en-1-one], the half-maximal inhibitory concentration (IC50) on BTK (setting [3]) and on ITK (setting [4]) was not above 20 nM each time.

As for `C=CC(=O)N1CC=C(c2nc(Nc3ncc(C)s3)cc3c2ccn3CC2CCC(F)(F)CC2)CC1` [Example 11, 1-(4-(1-((4,4-difluorocyclohexyl)methyl)-6-((5-methylthiazol-2-yl)amino)-1H-pyrrolo[3,2-c]pyridin-4-yl)-3,6-dihydropyridin-1(2H)-yl)prop-2-en-1-one], the IC50 on BTK (setting [3]) and on ITK (setting [4]) was not above 20 nM throughout.

As for `C=CC(=O)N1CC[C@H](Oc2nc(Nc3ncc(C)s3)cc3c2ccn3CCOC)C1` [Example 127, (S)-1-(3-((1-(2-methoxyethyl)-6-((5-methylthiazol-2-yl)amino)-1H-pyrrolo[3,2-c]pyridin-4-yl)oxy)pyrrolidin-1-yl)prop-2-en-1-one], the half-maximal inhibitory concentration (IC50) at BTK (setting [1]) and at ITK (setting [2]) was not above 20 nM throughout.

For the compound `C=CC(=O)N1CC[C@H](Oc2nc(Nc3ncc(C)s3)cc3c2ccn3CC(C)(C)O)C1` [Example 140, (S)-1-(3-((1-(2-hydroxy-2-methylpropyl)-6-((5-methylthiazol-2-yl)amino)-1H-pyrrolo[3,2-c]pyridin-4-yl)oxy)pyrrolidin-1-yl)prop-2-en-1-one], the half-inhibitory concentration (IC50) at BTK (setting [1]) and at ITK (setting [2]) was not above 20 nM throughout.

With `C=CC(=O)N1CC=C(c2nc(Nc3cc(C(F)(F)F)ncn3)cc3c2ccn3C(C)C)CC1` [Example 45, 1-(4-(1-isopropyl-6-((6-(trifluoromethyl)pyrimidin-4-yl)amino)-1H-pyrrolo[3,2-c]pyridin-4-yl)-3,6-dihydropyridin-1(2H)-yl)prop-2-en-1-one], the concentration for half-maximal inhibition (IC50) – broadly, the concentration at which inhibition is half-maximal – was 20 to 100 nM at BTK (setting [1]) and 100 to 500 nM at ITK (setting [2]).

For `C=CC(=O)N1C[C@H](F)[C@H](Oc2nc(Nc3ncc(C)s3)cc3c2ccn3[C@@H](C)CC)C1` [Example 112, 1-((3R,4S)-3-((1-((S)-sec-butyl)-6-((5-methylthiazol-2-yl)amino)-1H-pyrrolo[3,2-c]pyridin-4-yl)oxy)-4-fluoropyrrolidin-1-yl)prop-2-en-1-one], the IC50 at BTK (setting [1]) and on ITK (setting [2]) was not above 20 nM in each case.
